According to PMC2831140 (Biochemistry, 2010):

Target: T1, TbQSOX (Trypanosoma brucei, UniProt Q585M6)
T1 sequence (Q585M6 20-485): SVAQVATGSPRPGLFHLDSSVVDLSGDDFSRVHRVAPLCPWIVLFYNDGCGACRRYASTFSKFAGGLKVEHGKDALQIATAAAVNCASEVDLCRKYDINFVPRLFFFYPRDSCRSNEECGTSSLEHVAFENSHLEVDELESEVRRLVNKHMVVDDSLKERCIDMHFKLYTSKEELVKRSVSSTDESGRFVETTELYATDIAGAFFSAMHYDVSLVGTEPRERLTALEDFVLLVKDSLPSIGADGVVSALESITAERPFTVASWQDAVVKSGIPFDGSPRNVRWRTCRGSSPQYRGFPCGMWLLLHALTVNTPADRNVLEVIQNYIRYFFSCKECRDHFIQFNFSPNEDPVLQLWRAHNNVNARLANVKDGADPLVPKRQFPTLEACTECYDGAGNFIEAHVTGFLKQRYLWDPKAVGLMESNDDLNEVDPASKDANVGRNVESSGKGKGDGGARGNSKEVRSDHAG
Assay: UV/Vis spectrum of bound flavin in purified protein
Assay type: binding
Settings: 50 mM phosphate pH 7.5, 1 mM EDTA; prosthetic group in Erv/ALR domain

With `Cc1cc2nc3c(=O)[nH]c(=O)nc-3n(C[C@H](O)[C@H](O)[C@H](O)COP(=O)(O)OP(=O)(O)OC[C@H]3O[C@@H](n4cnc5c(N)ncnc54)[C@H](O)[C@@H]3O)c2cc1C` [FAD] the “UV/Vis spectrum of bound flavin in purified protein” value was “found to be a stable, monomeric, FAD-containing protein”.
